± gives the standard deviation of the averaged measurements.
Assays:
HS-Sch-2 [1] = experiment: % inhibition of CellTiter-Glo viability at highest tested concentration (72 h), relative to DMSO and benzethonium chloride controls; higher = more inhibition
In short: (§1)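 After seeding 750–1000 cells per well of MPNST cell lines or primary human Schwann cells into 384-well plates preprinted with each compound at five concentrations in 10-fold steps, plates were kept 72 h at 37 °C, 5% CO2. Viability was read as CellTiter-Glo ATP luminescence relative to vehicle and positive-control wells, with duplicates averaged where present. The data were fitted with four-parameter logistic models. Drug sensitivity score and relative IC50, censored at the top concentration, derive from the fits, and percent inhibition refers to the top concentration.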

ST8814 [2] = experiment: as above
In short: as §1

[3] = tested on: HSC1 (primary human Schwann cells); experiment: as above
In short: as §1

HS-PSS [4] = experiment: as above
In short: as §1

STS26T [5] = experiment: as above
In short: as §1

[6] = tested on: HSC2 (primary human Schwann cells); experiment: as above
In short: as §1

S1507-2 [7] = experiment: as above
In short: as §1

S462 [8] = experiment: as above
In short: as §1

YST-1 [9] = experiment: as above
In short: as §1

HS-Sch-2 [10] = experiment: drug sensitivity score (DSS, CellTiter-Glo viability, 72 h) (DSS (dimensionless)); higher = more sensitive; extreme values may be limits of the assay
In short: as §1

ST8814 [11] = experiment: as above
In short: as §1

[12] = tested on: HSC1 (primary human Schwann cells); experiment: as above
In short: as §1

HS-PSS [13] = experiment: as above
In short: as §1

STS26T [14] = experiment: as above
In short: as §1

[15] = tested on: HSC2 (primary human Schwann cells); experiment: as above
In short: as §1

S1507-2 [16] = experiment: as above
In short: as §1

S462 [17] = experiment: as above
In short: as §1

YST-1 [18] = experiment: as above
In short: as §1

ST8814 [19] = experiment: drug sensitivity score (DSS, CellTox-Green cytotoxicity, 72 h) (DSS (dimensionless)); higher = more cytotoxic; extreme values may be limits of the assay
In short: (§2)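 For 72 h at 37 °C, MPNST cell lines and primary human Schwann cells were exposed in 384-well plates to five 10-fold compound dilutions. CellTox-Green, added before seeding at a final 1:1000 dilution, gave fluorescence from DNA released by disrupted cells. Signals were scaled to vehicle and positive-control wells, cultures failing plate quality control were left out, and four-parameter logistic fits were applied. Relative IC50 and drug sensitivity score were derived from the fits, with IC50 censored at the top concentration.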

[20] = tested on: HSC1 (primary human Schwann cells); experiment: as above
In short: as §2

HS-PSS [21] = experiment: as above
In short: as §2

STS26T [22] = experiment: as above
In short: as §2

[23] = tested on: HSC2 (primary human Schwann cells); experiment: as above
In short: as §2

S1507-2 [24] = experiment: as above
In short: as §2

Structure (SMILES)	% inhibition (HS-Sch-2 [1]) [%]	% inhibition (ST8814 [2]) [%]	% inhibition [3] [%]	% inhibition (HS-PSS [4]) [%]	% inhibition (STS26T [5]) [%]	% inhibition [6] [%]	% inhibition (S1507-2 [7]) [%]	% inhibition (S462 [8]) [%]	% inhibition (YST-1 [9]) [%]	drug sensitivity score (HS-Sch-2 [10])	drug sensitivity score (ST8814 [11])	drug sensitivity score [12]	drug sensitivity score (HS-PSS [13])	drug sensitivity score (STS26T [14])	drug sensitivity score [15]	drug sensitivity score (S1507-2 [16])	drug sensitivity score (S462 [17])	drug sensitivity score (YST-1 [18])	drug sensitivity score (ST8814 [19])	drug sensitivity score [20]	drug sensitivity score (HS-PSS [21])	drug sensitivity score (STS26T [22])	drug sensitivity score [23]	drug sensitivity score (S1507-2 [24])
C/C(=C\c1csc(C)n1)[C@@H]1C[C@@H]2O[C@]2(C)CCC[C@H](C)[C@H](O)[C@@H](C)C(=O)C(C)(C)[C@@H](O)CC(=O)N1 [Ixabepilone] (max concentration tested 1000 nM)	91.8	79.1	69.7	39.3	92.9	62.1	62.7 ± 3.3	84.3 ± 4	79	5.18	3.83	7.72	1.51	4.72	4.2	3.26 ± 0.04	4.444 ± 0.0091	3.86	4.33	4.19	0	5.61	3.03	3.15 ± 0.92
O=C(Cc1ccc(-c2ccc(OCCN3CCOCC3)cc2)cn1)NCc1ccccc1 [KX2-391] (max concentration tested 10000 nM)	93.2	83.5	75.7	76.6	92.4	86.6	75.8 ± 1.3	94.784 ± 0.091	80.7	28.3	25.2	21.4	15.7	29.4	22.7	22.6 ± 0.24	28.72 ± 0.17	24	30.1	11.4	0	32.1	13.8	18.5 ± 2.1
CS(=O)(=O)CCNCc1ccc(-c2ccc3ncnc(Nc4ccc(OCc5cccc(F)c5)c(Cl)c4)c3c2)o1 [Lapatinib] (max concentration tested 1000 nM)	1.85	-2.6	7.8	6.86	10.1	5.46	2.48 ± 6	-5.81 ± 6.8	22.2	0	0	0	0	0.0002	0	0	0	0.63	0	0	0	0	0	0
Oc1ccc2c(c1)CC[C@H](c1ccccc1)[C@@H]2c1ccc(OCCN2CCCC2)cc1 [Lasofoxifene] (max concentration tested 1000 nM)	8.81	-2.62	17.1	21.2	4.5	9.44	6.44 ± 1.6	10.5 ± 10	-1.77	0	0	0	1.43	0	0	0	0.222 ± 0.31	0	0	0	0	0	0	0
C[C@]12O[C@H](C[C@]1(O)CO)n1c3ccccc3c3c4c(c5c6ccccc6n2c5c31)CNC4=O [Lestaurtinib] (max concentration tested 1000 nM)	68.4	62.3	54.4	45.7	54.5	51.8	76.7 ± 2.5	96.6 ± 1.5	26.8	7.66	6.44	11.2	5.63	5.07	13.2	9.04 ± 0.52	11.7 ± 0.16	3.41	1.63	0.556	0	0.547	0.0333	1.52 ± 2.1
N#Cc1ccc(C(c2ccc(C#N)cc2)n2cncn2)cc1 [Letrozole] (max concentration tested 10000 nM)	14.7	-5.31	1.16	10.6	3.15	3.35	-4.25 ± 4.2	-4.84 ± 2.2	7.25	0.34	0	0	0	0	0	0	0	0	0	0	0	0	0	0
c1ccc([C@H]2CN3CCSC3=N2)cc1 [Levamisole] (max concentration tested 10000 nM)	-7.3	-0.0528	-1.64	-6.64	6.7	4.5	-5.81 ± 3.8	0.12 ± 8.6	0.96	0	0	0	0	0	0	0	0	0	0	0	0	0	0	0
Cc1ccc(F)c(NC(=O)Nc2ccc(-c3cccc4[nH]nc(N)c34)cc2)c1 [Linifanib] (max concentration tested 1000 nM)	1.61	10.9	-2.2	9.61	5.78	11.5	10 ± 8.1	14.7 ± 3.3	6.46	0	0	0	0	0	0.0016	0.308 ± 0.44	0.159 ± 0.18	0	0	0	0	0	0	0
C[C@]1(O)C[C@@H](c2nc(-c3ccc4ccc(-c5ccccc5)nc4c3)c3c(N)nccn32)C1 [Linsitinib] (max concentration tested 10000 nM)	25.6	11.1	27	-2.81	13	11.7	24.6 ± 0.99	30.7 ± 0.84	82.4	2.13	0	5.89	0	0.527	0	5.34 ± 1.7	5.33 ± 1.5	11.6	0	0	0	0	0	0.228 ± 0.32
Nc1nc(OCc2cc(Br)cs2)c2[nH]cnc2n1 [Lomeguatrib] (max concentration tested 10000 nM)	-6.3	-0.939	-5.66	15.1	-6.97	-5.93	-7.24 ± 3.2	-14 ± 0.99	-1.6	0	0	0	0.77	0	0	0	0	0	0	0	0	0	0	0
O=NN(CCCl)C(=O)NC1CCCCC1 [Lomustine] (max concentration tested 10000 nM)	-15	-8.13	-0.952	-0.39	0.864	-3.35	-7.84 ± 0.87	-9.57 ± 4	0.78	0	0	0	0	0	0	0	0	0	0	0	0	0	0	0
Cn1cnc(-c2cc3nccc(Oc4ccc(NC(=S)NC(=O)Cc5ccccc5)cc4F)c3s2)c1 [MGCD-265] (max concentration tested 10000 nM)	29.8	29.8	11	23.4	11.4	21.3	40 ± 2.4	40.6 ± 5.4	16.1	2.2	3.47	0.016	2.02	0	0.731	4.92 ± 1.6	2.93 ± 0.53	0.19	0.0251	0	0	0	0.0906	3.76 ± 5.3
C=CCn1c(=O)c2cnc(Nc3ccc(N4CCN(C)CC4)cc3)nc2n1-c1cccc(C(C)(C)O)n1 [MK1775] (max concentration tested 10000 nM)	88.4	89.8	67.6	49.6	96.8	85.9	83.3 ± 2	107.2 ± 0.38	82.5	23.8	15.8	14.4	6.59	16.4	17	16.3 ± 1.6	24.5 ± 0.65	14.7	14.6	5.21	0.11	20.3	9.17	16.1 ± 1.9

From the supplement of paper PMC5579334
